Data taken from publication PMC6264731, “Chemo-Enzymatic Synthesis of Ester-Linked Docetaxel-Monosaccharide Conjugates as Water-Soluble Prodrugs” (Molecules, 2011).
In brackets after ≈: the same amount, converted by molar mass. Where two headings read alike, the source gives them in different places.

What was measured:
[1] = Water-solubility, stirred in water 24 h at 25 °C, HPLC quantification; assay type: physicochemical
Experimental: The mixture was centrifuged at 100,000 g for 30 min at 25 °C. The concentration of test compounds was estimated on the basis of their peak areas using calibration curves prepared by HPLC analyses of authentic samples.

MCF-7 human cancer cells = experiment: MTT cytotoxicity assay in MCF-7 cells; assay type: cell-based; conditions: for IC50 MCF-7 cells: 24 h treatment
Experimental: (§1) The sensitivity of KB and MCF-7 cells to docetaxel or 4–6 was determined according to the previously reported method. Cells were diluted with culture medium to the seeding density (10^5 cells/mL), suspended in 96-well tissue culture plates (100 μL/well), preincubated at 37 °C for 4 h, and then treated for 24 h with docetaxel or 4–6 at various concentrations to obtain a dose–response curve for each compound. After incubation, 20 μL MTT solution (2.5 mg/mL) was added to each well and the plates were further incubated for 4 h. Absorbance at 570 nm was measured with a microplate reader model 450 (BIO-RAD). Dose-response curves were plotted on a semi-log scale as percentage of the cell numbers in control cultures not exposed to test compounds.

KB human cancer cells [2] = experiment: MTT cytotoxicity assay in KB cells; assay type: cell-based; conditions: 24 h treatment
Experimental: as §1

KB human cancer cells [3] = experiment: Hydrolysis of prodrugs by KB cells, release of docetaxel (HPLC); assay type: cell-based; conditions: 5 μmol compound, 20 mg KB cells in RPMI 1640, 37 °C, 24 h
Experimental: To a 5-mL vial containing RPMI 1640 medium (1 mL, Nissui Pharmaceutical Co. Ltd.) and KB cells (20 mg) was added 5 μmol of each compound. The mixture was incubated at 37 °C for 24 h. The cells and medium were separated by centrifugation at 10,000 g for 5 min. The cells were extracted with MeOH. MeOH extract was concentrated, and the residue was partitioned between H2O and CH2Cl2. The medium was extracted with CH2Cl2. The CH2Cl2 fractions were combined, concentrated, and analyzed by HPLC. The yield of docetaxel was calculated on the basis of the peak area from HPLC using a calibration curve provided by HPLC analyses of authentic docetaxel.

| Compound | Fold (water-solubility relative to docetaxel) ([1]; relative to docetaxel) | solubility at 24 h ([1]; thermodynamic from solid) | IC50 (MCF-7 human cancer cells; Homo sapiens, MCF7, 24 h treatment) | IC50 (KB human cancer cells [2]; Homo sapiens) | solubility at 24 h [1] | Conversion to docetaxel (hydrolysis by KB cells) (KB human cancer cells [3]) | IC50 MCF-7 cells (MCF-7 human cancer cells) | IC50 KB cells (KB human cancer cells [2]) |
| --- | --- | --- | --- | --- | --- | --- | --- | --- |
| CC(=O)O[C@@]12CO[C@@H]1C[C@H](O)[C@@]1(C)C(=O)[C@H](O)C3=C(C)[C@@H](OC(=O)[C@H](O)[C@@H](NC(=O)OC(C)(C)C)c4ccccc4)C[C@@](O)([C@@H](OC(=O)c4ccccc4)[C@H]21)C3(C)C [Docetaxel] | 1 fold | 0.5 µM (≈ 0.404 µg/mL) | 5 µg/mL (≈ 6.19 µM) | 12 µg/mL (≈ 14.9 µM) |  |  |  |  |
| 7-propionyldocetaxel 3''-O-β-D-xylopyranoside [Compound 6] |  |  |  |  | 20.2 µM | 76% | 12 µg/mL | 25 µg/mL |
| 7-propionyldocetaxel 3''-O-β-D-galactopyranoside [Compound 5] |  |  |  |  | 25.5 µM | 45% | 28 µg/mL | 41 µg/mL |
